In assay [1] the test system is L6-myotubes. Briefly: Measurement of intracellular cAMP levels in differentiated L6-myotubes (Biological Example 3). Format: cell-based. Conditions: 0.25 h. The procedure, abridged:
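Intracellular cAMP quantified by AlphaScreen after ethanol extraction and lysis of L6 myotubes. Cells were serum-starved overnight, then exposed for 15 min to compound (final 1×10^−5 M) or isoprenaline in IBMX-containing (1 mM) HBSS buffer, pH 7.4.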
In general terms: Cyclic AMP is a second messenger, typically raised through Gs and lowered through Gi signalling.

Assay [2] relates to L6-myotubes. As to the kind of experiment: Glucose uptake in differentiated L6-myotubes (Biological Example 2). The assay is classed as cell-based. The settings on record: read-out: Biological example 2 (GU). Put shortly: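 Uptake was quantified as radioactivity in 0.2 M NaOH lysates after a 10 min pulse of 50 nM ^3H-2-deoxyglucose. The pulse followed two agonist exposures at 1×10^−5 M final (isoprenaline or test compound): 1 h 40 min, then 20 min in glucose-free medium after washing. L6 myotubes had been starved overnight in medium with 0.5% fatty-acid-free BSA.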

The mark [3] stands for this setting: intracellular cAMP, compound at 10 μM relative to isoproterenol at 10 μM.
The mark [4] stands for this setting: glucose uptake, compound at 10 μM relative to isoproterenol at 10 μM.
Setting [5] is: intracellular cAMP in differentiated L6-myotubes, compound at 10 μM, activity relative to isoproterenol at 10 μM.
The mark [6] stands for this setting: glucose uptake in differentiated L6-myotubes, compound at 10 μM, activity relative to isoproterenol at 10 μM.

Some results are limits rather than exact numbers.

As to `CC1(C)CCC[C@H]([C@@H](O)c2cccc(F)c2)N1` [Compound 101], the results for the Emax at 10 µM in the assay on L6-myotubes [1] (setting [3]) and in the assay with L6-myotubes [2] (setting [4]) were under 25% and 25 to 50%, respectively.

In the case of `CC(=O)N[C@H]1CC[C@H](C[C@@H]2CC[C@H]([C@H](O)c3cccc(F)c3)N2)CC1` [Compound 485], the Emax at 10 µM in the assay with L6-myotubes [1] (setting [5]) was under 25%; with L6-myotubes [2] (setting [6]) it was 50 to 75%.

Take `Cc1ncccc1[C@@H](O)CNC(C)(C)C` [Compound 376, (R)-2-(tert-butylamino)-1-(2-methyl-3-pyridyl)-1-ethanol]: the Emax at 10 µM in the assay with L6-myotubes [1] (setting [5]) is 25 to 50%; with L6-myotubes [2] (setting [6]) it was over 75%.

For the compound `COC(=O)[C@H]1CC[C@H](C(C)(C)NC[C@H](O)c2cncc(F)c2)CC1` [Compound 370, (1R,4r)-8-[(R)-2-(5-fluoro-3-pyridyl)-2-hydroxyethylamino]-7-methoxy-p-menthan-7-one], the Emax at 10 µM with L6-myotubes [1] (setting [5]) is under 25%; in the assay with L6-myotubes [2] (setting [6]), over 75%.

On to `CCCCNCC(O)c1ccc(=O)[nH]c1` (stereo not drawn) [Compound 63, 5-[2-(butylamino)-1-hydroxyethyl]-2(1H)-pyridinone], for which the Emax at 10 µM in the assay on L6-myotubes [1] (setting [3]) is under 25%; in the assay with L6-myotubes [2] (setting [4]), 25 to 50%.

With `CCCCNCC(O)c1ccc(F)c(NC(C)=O)c1F` (stereo not drawn) [Compound 42, N-{3-[2-(butylamino)-1-hydroxyethyl]-2,6-difluorophenyl}acetamide], the results for the Emax at 10 µM with L6-myotubes [1] (setting [3]) and with L6-myotubes [2] (setting [4]) were under 25% and 25 to 50%, respectively.

For `CNS(=O)(=O)[C@H]1CC[C@@H](CC(C)(C)NC[C@H](O)c2cncc(F)c2)CC1` [Compound 495], the results for the Emax at 10 µM in the assay with L6-myotubes [1] (setting [5]) and in the assay with L6-myotubes [2] (setting [6]) were under 25% and 50 to 75%, respectively.

Regarding `O[C@@H](CNCCC[C@H]1CC[C@@H](O)CC1)c1cccc(F)c1` [Compound 306, (R)-1-(m-fluorophenyl)-2-{3-[(1s,4R)-4-hydroxycyclohexyl]propylamino}-1-ethanol], the figures for the Emax at 10 µM with L6-myotubes [1] (setting [5]) and in the assay with L6-myotubes [2] (setting [6]) were under 25% and 25 to 50%, respectively.

Take `CC12CCC([C@H](O)c3ccccc3Cl)(CC1)N2` [Compound 195, (R)-(o-chlorophenyl)(4-methyl-7-azabicyclo[[2.2.1]]hept-1-yl)methanol]: the Emax at 10 µM in the assay with L6-myotubes [1] (setting [3]) is under 25%; with L6-myotubes [2] (setting [4]), over 75%.

As for `O[C@H](c1cncc(F)c1)C12CCC(C/C=C/c3ccccc3)(CC1)N2` [Compound 530, (R)-{4-[(E)-3-phenyl-2-propenyl]-7-azabicyclo[[2.2.1]]hept-1-yl}(5-fluoro-3-pyridyl)methanol], the values for the Emax at 10 µM in the assay with L6-myotubes [1] (setting [5]) and in the assay with L6-myotubes [2] (setting [6]) were 25 to 50% and over 75%, respectively.

Consider `CC(C)(C[C@H]1CC[C@H](S(N)(=O)=O)CC1)NC[C@H](O)c1cccc(F)c1` [Compound 516, (1R,4r)-4-{2-[(R)-2-(m-fluorophenyl)-2-hydroxyethylamino]-2-methylpropyl} cyclohexanesulfonamide], for which the Emax at 10 µM in the assay on L6-myotubes [1] (setting [5]) was under 25%; in the assay on L6-myotubes [2] (setting [6]) it was over 75%.

`CCCC(C)NCC(O)c1cc(Cl)c(O)c(Cl)c1` (stereo not drawn) [Compound 25, 1-(3,5-dichloro-4-hydroxyphenyl)-2-(1-methylbutylamino)-1-ethanol]: the Emax at 10 µM in the assay on L6-myotubes [1] (setting [3]) and with L6-myotubes [2] (setting [4]) was under 25% throughout.

On to `CO[C@H]1CC[C@H](C[C@H]2CC[C@H]([C@H](O)c3cncc(F)c3)N2)CC1` [Compound 341], for which the values for the Emax at 10 µM in the assay with L6-myotubes [1] (setting [5]) and in the assay on L6-myotubes [2] (setting [6]) were under 25% and over 75%, respectively.

`CN([C@H]1CC[C@@H](CC(C)(C)NC[C@H](O)c2cncc(F)c2)CC1)S(C)(=O)=O` [Compound 520]: the Emax at 10 µM with L6-myotubes [1] (setting [5]) is under 25%; with L6-myotubes [2] (setting [6]), 50 to 75%.

`CC(=O)N[C@H]1CC[C@H](CNC[C@H](O)c2cccc(F)c2)CC1` [Compound 308]: the Emax at 10 µM with L6-myotubes [1] (setting [5]) is under 25%; with L6-myotubes [2] (setting [6]), 50 to 75%.

For the compound `CC1(C)CCC[C@H]([C@@H](O)c2ccccc2Cl)N1` [Compound 163, (S)-[(R)-6,6-dimethyl-2-piperidyl](o-chlorophenyl)methanol], the results for the Emax at 10 µM in the assay on L6-myotubes [1] (setting [3]) and in the assay on L6-myotubes [2] (setting [4]) were under 25% and over 75%, respectively.

`CC(=O)N[C@H]1CC[C@H](C(C)(C)NC[C@H](O)c2cccc(F)c2)CC1` [Compound 386, N-[(1R,4r)-4-{1-[(R)-2-(m-fluorophenyl)-2-hydroxyethylamino]-1-methylethyl}cyclohexyl] acetamide]: the Emax at 10 µM in the assay with L6-myotubes [1] (setting [5]) was under 25%; with L6-myotubes [2] (setting [6]) it was over 75%.

Consider `O[C@H](c1cccc(F)c1)[C@H]1CC[C@H](Cc2ccc(Cl)cc2)N1` [Compound 393, (R)-{(2R,5R)-5-[(p-chlorophenyl)methyl]-2-pyrrolidinyl}(m-fluorophenyl)methanol], for which the values for the Emax at 10 µM in the assay on L6-myotubes [1] (setting [5]) and in the assay on L6-myotubes [2] (setting [6]) were under 25% and over 75%, respectively.

For the compound `CC(C)(C[C@H]1CC[C@H](N)CC1)NC[C@H](O)c1cncc(F)c1` [Compound 359, (R)-2-{1,1-dimethyl-2-[(1r,4R)-4-aminocyclohexyl]ethylamino}-1-(5-fluoro-3-pyridyl)-1-ethanol], the Emax at 10 µM in the assay with L6-myotubes [1] (setting [5]) was under 25%; with L6-myotubes [2] (setting [6]), over 75%.

In the case of `CC(C)(NC[C@H](O)c1cccc(F)c1)[C@H]1CC[C@H](NS(C)(=O)=O)CC1` [Compound 385, (R)-1-(m-fluorophenyl)-2-{1-methyl-1-[(1r,4R)-4-(mesylamino)cyclohexyl]ethylamino}-1-ethanol], the Emax at 10 µM with L6-myotubes [1] (setting [5]) is under 25%; in the assay on L6-myotubes [2] (setting [6]), 50 to 75%.

For the compound `CO[C@H]1CC[C@@H](CNC[C@H](O)c2cccc(F)c2)CC1` [Compound 245, (R)-1-(m-fluorophenyl)-2-({[(1s,4S)-4-methoxycyclohexyl]methyl}amino)-1-ethanol], the Emax at 10 µM in the assay with L6-myotubes [1] (setting [5]) is under 25%; in the assay with L6-myotubes [2] (setting [6]), 50 to 75%.

As to `CC1(C)CC[C@H]([C@H](O)c2cncc(O)c2)N1` [Compound 167, 5-{(R)-[(R)-5,5-dimethyl-2-pyrrolidinyl] hydroxymethyl}-3-pyridinol], the Emax at 10 µM was under 25% in the assay on L6-myotubes [1] (setting [3]) and 50 to 75% in the assay on L6-myotubes [2] (setting [4]).

As to `CCCCNCC(O)c1cccnc1` (stereo not drawn) [Compound 49, 2-(butylamino)-1-(3-pyridyl)-1-ethanol], the Emax at 10 µM is under 25% in the assay on L6-myotubes [1] (setting [3]) and 50 to 75% with L6-myotubes [2] (setting [4]).

Regarding `C[C@H]1CC[C@@H]([C@@H](O)c2cccc(O)c2)N1` (racemic) [Compound 41, Racemic mixture of m-{(R)-[(2R,5R)-5-methyl-2-pyrrolidinyl] hydroxymethyl}phenol and m-{(S)-[(2S,5S)-5-methyl-2-pyrrolidinyl] hydroxymethyl}phenol], the Emax at 10 µM was under 25% in the assay on L6-myotubes [1] (setting [3]) and over 75% in the assay with L6-myotubes [2] (setting [4]).

As to `CC(C)(NC[C@H](O)c1cncc(F)c1)[C@H]1CC[C@H](C(=O)O)CC1` [Compound 390, (1R,4r)-8-[(R)-2-(5-fluoro-3-pyridyl)-2-hydroxyethylamino]-7-hydroxy-p-menthan-7-one], the values for the Emax at 10 µM in the assay on L6-myotubes [1] (setting [5]) and in the assay with L6-myotubes [2] (setting [6]) were under 25% and 50 to 75%, respectively.

On to `CC(C)(C[C@H]1CC[C@@H](N)CC1)NC[C@H](O)c1cccc(C#N)n1` [Compound 418, 6-[(S)-2-{1,1-dimethyl-2-[(1s,4R)-4-aminocyclohexyl]ethylamino}-1-hydroxyethyl]-2-pyridinecarbonitrile], for which the figures for the Emax at 10 µM in the assay on L6-myotubes [1] (setting [5]) and with L6-myotubes [2] (setting [6]) were under 25% and 50 to 75%, respectively.

In the case of `CCC[C@@H]1CC[C@H]([C@H](O)c2cccc(F)c2)N1` [Compound 58], the values for the Emax at 10 µM in the assay with L6-myotubes [1] (setting [3]) and with L6-myotubes [2] (setting [4]) were 25 to 50% and over 75%, respectively.

For `COCC12CCC([C@H](O)c3cccc(F)c3)(CC1)N2` [Compound 330, (R)-(m-fluorophenyl){4-(methoxymethyl)-7-azabicyclo[[2.2.1]]hept-1-yl}methanol], the Emax at 10 µM was under 25% in the assay with L6-myotubes [1] (setting [5]) and over 75% with L6-myotubes [2] (setting [6]).

Take `CC12CCC([C@@H](O)c3ccccc3F)(CC1)N2` [Compound 180, (S)-(o-fluorophenyl)(4-methyl-7-azabicyclo[[2.2.1]]hept-1-yl)methanol]: the values for the Emax at 10 µM in the assay on L6-myotubes [1] (setting [3]) and with L6-myotubes [2] (setting [4]) were under 25% and over 75%, respectively.

Turning to `CS(=O)(=O)N[C@H]1CC[C@H](CNC[C@H](O)c2cccc(F)c2)CC1` [Compound 311], the Emax at 10 µM with L6-myotubes [1] (setting [5]) is under 25%; in the assay on L6-myotubes [2] (setting [6]), 50 to 75%.

On to `CO[C@H]1CC[C@@H](CCNC[C@H](O)c2cncc(F)c2)CC1` [Compound 238, (R)-1-(5-fluoro-3-pyridyl)-2-{2-[(1s,4S)-4-methoxycyclohexyl]ethylamino}-1-ethanol], for which the values for the Emax at 10 µM with L6-myotubes [1] (setting [5]) and in the assay with L6-myotubes [2] (setting [6]) were under 25% and over 75%, respectively.

On to `CC(C)(C[C@H]1CC[C@@H](O)CC1)NC[C@H](O)c1cccc(F)c1` [Compound 302, (R)-2-{1,1-dimethyl-2-[(1s,4S)-4-hydroxycyclohexyl]ethylamino}-1-(m-fluorophenyl)-1-ethanol], for which the results for the Emax at 10 µM in the assay on L6-myotubes [1] (setting [5]) and in the assay with L6-myotubes [2] (setting [6]) were under 25% and 50 to 75%, respectively.

For `COC(=O)[C@H]1CC[C@@H](CCC(C)(C)NC[C@H](O)c2cncc(F)c2)CC1` [Compound 349, methyl (1S,4s)-4-{3-[(R)-2-(5-fluoro-3-pyridyl)-2-hydroxyethylamino]-3-methylbutyl} cyclohexanecarboxylate], the Emax at 10 µM was 25 to 50% in the assay on L6-myotubes [1] (setting [5]) and over 75% with L6-myotubes [2] (setting [6]).

As to `CCC[C@H]1CCC[C@H]([C@H](O)c2ccccc2Cl)N1` [Compound 135, (R)-[(2R,6S)-6-propyl-2-piperidyl](o-chlorophenyl)methanol], the Emax at 10 µM in the assay on L6-myotubes [1] (setting [3]) is under 25%; with L6-myotubes [2] (setting [4]) it was 25 to 50%.

As to `CCC[C@H]1CCC[C@H]([C@@H](O)c2cncc(F)c2)N1` [Compound 139], the Emax at 10 µM in the assay with L6-myotubes [1] (setting [3]) and in the assay with L6-myotubes [2] (setting [4]) was under 25% throughout.

In the case of `CN(C)S(=O)(=O)[C@H]1CC[C@H](CC(C)(C)NC[C@H](O)c2cccc(F)c2)CC1` [Compound 464], the Emax at 10 µM with L6-myotubes [1] (setting [5]) and in the assay with L6-myotubes [2] (setting [6]) was 25 to 50% in each case.
